Source: publication PMC6990405, “Synthesis and Structure–Activity relationship of 1-(5-isoquinolinesulfonyl)piperazine analogues as inhibitors of Mycobacterium tuberculosis IMPDH” (European Journal of Medicinal Chemistry, 2019)
Values after ≈ are worked out from the molar mass of the structure shown.

Legend:
[1] = system: M. tuberculosis SRMV2.6 (IMPDH Tyr487Cys); format: cell-based, Mycobacterium tuberculosis
[2] = system: M. tuberculosis guaB2 cKD mutant; format: cell-based; settings: increase in potency against guaB2 cKD mutant upon guaB2 silencing

In the case of `O=C(C1CCCCC1)N1CCN(S(=O)(=O)c2cccc3cnccc23)CC1` [Compound 1, Cyclohexyl[4-(isoquinoline-5-sulfonyl)piperazin-1-yl]methanone], the “MIC90 against SRMV2.6” value [1] is reported as 250 µM (≈ 96.9 µg/mL) and the “Hyper-sensitivity to guaB2 cKD” value [2] is reported as “∼32-fold”.

`CC1CCCCC1C(=O)N1CCN(S(=O)(=O)c2cccc3cnccc23)CC1` (stereo not drawn) [Compound 13, [4-(isoquinoline-5-sulfonyl)piperazin-1-yl](2-methylcyclohexyl)methanone] was tested, and the “MIC90 against SRMV2.6” value [1] was greater than 250 µM and the “Hyper-sensitivity to guaB2 cKD” value [2] was 16–32-fold.

`O=C(C1CCCCCC1)N1CCN(S(=O)(=O)c2cccc3cnccc23)CC1` [Compound 14, Cycloheptyl[4-(isoquinoline-5-sulfonyl)piperazin-1-yl]methanone] was tested, and the “MIC90 against SRMV2.6” value [1] was greater than 250 µM and the “Hyper-sensitivity to guaB2 cKD” value [2] was 16-fold.

With `O=C(c1cccc([N+](=O)[O-])c1)N1CCN(S(=O)(=O)c2cccc3cnccc23)CC1` [Compound 18, [4-(isoquinoline-5-sulfonyl)piperazin-1-yl](3-nitrophenyl)methanone] the “MIC90 against SRMV2.6” value [1] was 50 µM (≈ 21.3 µg/mL) and the “Hyper-sensitivity to guaB2 cKD” value [2] was 8-fold.

`O=C(CC1CCCCC1)N1CCN(S(=O)(=O)c2cccc3cnccc23)CC1` [Compound 22, 2-Cyclohexyl-1-(4-(isoquinolin-5-ylsulfonyl)piperazin-1-yl)ethan-1-one] was tested, and the “MIC90 against SRMV2.6” value [1] was greater than 250 µM and the “Hyper-sensitivity to guaB2 cKD” value [2] was 16-fold.

`O=C(Nc1ccc2c(c1)OCO2)N1CCCN(S(=O)(=O)c2cccc3cnccc23)CC1` [Compound 44, 4-(isoquinoline-5-sulfonyl)-N-(2H-1,3-benzodioxol-5-yl)-1,4-diazepane-1-carboxamide] was tested, and the “MIC90 against SRMV2.6” value [1] was greater than 100 µM and the “Hyper-sensitivity to guaB2 cKD” value [2] was 8–16-fold.

With `CC1CN(S(=O)(=O)c2cccc3cnccc23)CCN1C(=O)Nc1ccc2c(c1)OCO2` (stereo not drawn) [Compound 45, N-(benzo[d][1,3]dioxol-5-yl)-4-(isoquinolin-5-ylsulfonyl)-2-methylpiperazine-1-carboxamide] the “MIC90 against SRMV2.6” value [1] was greater than 100 µM and the “Hyper-sensitivity to guaB2 cKD” value [2] was 8–16-fold.

With `O=C(NCc1ccccc1)N1CCN(S(=O)(=O)c2cccc3cnccc23)CC1` [Compound 46, N-benzyl-4-(isoquinolin-5-ylsulfonyl)piperazine-1-carboxamide] the “MIC90 against SRMV2.6” value [1] was greater than 100 µM and the “Hyper-sensitivity to guaB2 cKD” value [2] was 8-fold.

With `Cc1ccccc1CNC(=O)N1CCN(S(=O)(=O)c2cccc3cnccc23)CC1` [Compound 48, 4-(isoquinolin-5-ylsulfonyl)-N-(2-methylbenzyl)piperazine-1-carboxamide] the “MIC90 against SRMV2.6” value [1] was 15.6 µM (≈ 6.62 µg/mL) and the “Hyper-sensitivity to guaB2 cKD” value [2] was 16–32-fold.
